Reference: paper PMC5450539, “Anti-Inflammatory Activity and Structure-Activity Relationships of Brominated Indoles from a Marine Mollusc” (Marine Drugs, 2017)
Several values for one entry are separate records, joined by “and”; a condition that tells them apart may be missing. Equal entries are not always repeated. Where two headings read alike, the source gives them in different places.

Tests used:
[1] = test system: 3T3 ccl-92 mouse fibroblast; assay: Crystal violet cytotoxicity assay, 3T3 ccl-92; format: cell-based; settings: 24 h incubation; max test concentration 50 µg/mL; > = <50% reduction in viability at max
Experimental: All extract/compounds were dissolved in DMSO and tested at 5 different concentrations of 50, 10, 2, 0.4, and 0.08 μg/mL for all anti-inflammatory assays unless otherwise noted. The final concentration of DMSO was 0.35% v/v for extracts and compounds. All samples were tested in triplicate at each concentration and each assay was independently repeated at least 3 times. The concentrations used for the cytotoxicity assays were 50, 25, 12.5, 6.25. and 3.125 μg/mL.
To check for cytotoxicity of the extracts and compounds against RAW264.7 mouse macrophage and 3T3 ccl-92 mouse fibroblast cell lines, the crystal violet cytotoxicity test was used according to the published protocol. In brief, RAW264.7 cells were seeded with a density of 2 × 10^4 cells/well in a 96-well plate and then incubated for 18–24 h. The following day the compounds/extracts were added and then incubated for 24 h before the media was aspirated and the cells washed twice in a gentle stream of water. After removing the water, 50 µL of 0.5% crystal violet staining solution were added and the cells were incubated for 20 min at room temperature. The plate was then washed 4 times with water and air dried for 2 h. Finally, 200 μL of methanol was added to each well and incubated for 20 min at room temperature on a rocker. This was followed by measuring the optical density at 570 nm with a plate reader Anthos Zenyth 200rt (Anthos Labtec Instruments, Heerhugowaard, The Netherlands). Chlorambucil was used as a positive control.

TNFα production = assay: TNF-alpha inhibition assay (ELISA) in LPS-stimulated RAW264.7 macrophages; format: cell-based, mouse; settings: for IC50: Mus musculus
Experimental: The amount of TNFα was quantified in cell culture media using murine TNFα ELISA kits (BD bioscience). In brief, the RAW264.7 mouse macrophages (6 × 10^5 cells/mL) were stimulated with LPS (100 ng/mL) 1 h after treatment with several concentrations of extracts (0.08–50 μg/mL). After 18 h, the supernatant was collected and TNFα production was measured by reading the absorbance at 450 nm wavelength on an Anthos Zenyth 200rt microplate reader (Anthos Labtech Instruments). Dexamethasone at a concentration of 2.5 μM was used as a positive control, with a negative control of 0.35% DMSO.
All data were processed in Microsoft Office Excel 2013 (MS) first to obtain descriptive statistics. One-way Analysis of Variance (ANOVA) followed by Dunnett’s multiple comparisons test was performed using GraphPad Prism version 6.00 for Windows (GraphPad Software, La Jolla, CA, USA, www.graphpad.com), with p < 0.05 considered significant. The inhibitory concentration responsible for a 50% reduction in cell viability or production of inflammatory markers (IC50) was calculated using the regression analysis, Probit in SPSS v21.

[2] = test system: nitric oxide (NO) production; assay: NO inhibition assay (Greiss) in LPS-stimulated RAW264.7 macrophages; format: cell-based, mouse; settings: for IC50: Mus musculus
Experimental: RAW264.7 macrophages were incubated 1 h with extracts/compounds prior to the addition of LPS. […] Then, 20 h after the addition of LPS, the supernatant was collected. […] The plates were incubated for 15–20 min in the dark, then read at 550 nm wavelength on an Anthos Zenyth 200rt (Anthos Labtec Instruments). Sodium nitrite was used to prepare a standard curve to quantify the nitrite from the absorbance readings in this assay. All data were processed in Microsoft Office Excel 2013 (MS) first to obtain descriptive statistics. One-way Analysis of Variance (ANOVA) followed by Dunnett’s multiple comparisons test was performed using GraphPad Prism version 6.00 for Windows (GraphPad Software, La Jolla, CA, USA, www.graphpad.com), with p < 0.05 considered significant.

NFκB translocation = assay: Assessment of NFκB translocation in LPS-stimulated RAW264.7; format: cell-based; settings: Mus musculus, RAW264.7, 40 µg/mL, LPS-stimulated RAW264.7, relative to DMSO + LPS
Experimental: This assay was performed according to the published protocol in Olivera et al.. RAW264.7 mouse macrophages were seeded at 400,000 cells/well in 800 μL in 4-well chambered slides and incubated overnight. The cells were then incubated with the test samples (40 μg/mL HBG extract, 6-bromoisatin, or 6-bromoindole) for 1 h prior to stimulation with LPS (700 ng/mL) for 30 min. After stimulation, the cells were washed with PBS and fixed with 3.7% paraformaldehyde for 15 min. […] The cells were washed with PBS and incubated with rabbit anti-p65 NFκB antibody (1:500) and goat anti-mouse IκB (1:500) overnight at 4 °C. The following day, the cells were washed again three times with PBS and incubated for 1 h with goat-anti-rabbit IgG conjugated with Alexa Fluor 594 (1:1000) and donkey anti-mouse IgG conjugated with Alexa fluor 488 (1:1000) at room temperature. Finally, the cells were washed with PBS then mounted with Prolong mounting media containing DAPI before visualising using the Olympus Flouview FVi10 confocal microscope (Olympus, Tokyo, Japan). Using ImageJ (v1.50i, National Institutes of Health, Bethesda, MD, USA), an outline was drawn around each nucleus by adjusting the colour threshold of DAPI. Mean fluorescence inside the nucleus was measured, along with several adjacent background readings. The total corrected cellular fluorescence (TCCF) was calculated by applying the equation TCCF = integrated density − (area of selected cell × mean fluorescence of background readings). This TCCF was then used to calculate the %inhibition of the NFκB translocation against the positive control where the cells were treated with LPS in the presence of the Vehicle (0.35% DMSO v/v) in Microsoft Office Excel 2013 (Redmond, WA, USA).

NO production = test system: NO production; parameters: method as in Matheus et al. [37]; settings: LPS and interferon-γ induced, RAW264.7; ref Matheus et al. [37]; cited from earlier work
TNFα = test system: TNFα; parameters: method as in Matheus et al. [37]; settings: minimum effective dose not established; ref Matheus et al. [37]; cited from earlier work

IC50 (TNFα production; RAW264.7, LPS-stimulated RAW264.7, max test concentration 50 µg/mL, read-out: TNFα IC50): > 340 µM
IC50 (TNFα production; RAW264.7, LPS-stimulated RAW264.7, read-out: TNFα IC50): > 50 µg/mL
IC50 (TNFα production; RAW264.7, predicted, above the maximum test concentration, read-out: predicted TNFα IC50): 717 µM
IC50 ([2]; RAW264.7, LPS-stimulated RAW264.7, max test concentration 50 µg/mL, read-out: NO IC50): ~340 µM
IC50 ([2]; RAW264.7, predicted, above maximum test concentration 50 μg/mL, read-out: predicted NO IC50): 63.3 µg/mL and 430 µM
SMILES: O=C1Nc2ccccc2C1=O [isatin]
Cytotoxicity 3T3 ccl-92 (test concentration which causes toxicity) [1]: NA (not active at maximum test concentration 50 µg/mL)
lowest concentration with significant inhibition of TNFα (TNFα production): 0.5 µM
reduction of NO production ([2]; 50 µg/mL (maximum test concentration), relative to DMSO control): 34%
inhibition at 40 µg/mL (NFκB translocation): 45.7%
concentrations significantly inhibiting NO production (NO production): 10 to 100 µM
concentration at which TNFα was inhibited (TNFα): 100 µM
